Source: paper PMC13088180, “Chemical Proteomics Reveal the Inventory of Pyrroloquinoline Quinone Binding Proteins in Bacteria” (Journal of the American Chemical Society, 2026)

Assays:
PedH = molecular target: T1, PedH (Pseudomonas putida, UniProt Q88JH0); conditions: 100 nM enzyme reconstituted with PQQ, 50 mM ethanol
T1 sequence (Q88JH0 28-595): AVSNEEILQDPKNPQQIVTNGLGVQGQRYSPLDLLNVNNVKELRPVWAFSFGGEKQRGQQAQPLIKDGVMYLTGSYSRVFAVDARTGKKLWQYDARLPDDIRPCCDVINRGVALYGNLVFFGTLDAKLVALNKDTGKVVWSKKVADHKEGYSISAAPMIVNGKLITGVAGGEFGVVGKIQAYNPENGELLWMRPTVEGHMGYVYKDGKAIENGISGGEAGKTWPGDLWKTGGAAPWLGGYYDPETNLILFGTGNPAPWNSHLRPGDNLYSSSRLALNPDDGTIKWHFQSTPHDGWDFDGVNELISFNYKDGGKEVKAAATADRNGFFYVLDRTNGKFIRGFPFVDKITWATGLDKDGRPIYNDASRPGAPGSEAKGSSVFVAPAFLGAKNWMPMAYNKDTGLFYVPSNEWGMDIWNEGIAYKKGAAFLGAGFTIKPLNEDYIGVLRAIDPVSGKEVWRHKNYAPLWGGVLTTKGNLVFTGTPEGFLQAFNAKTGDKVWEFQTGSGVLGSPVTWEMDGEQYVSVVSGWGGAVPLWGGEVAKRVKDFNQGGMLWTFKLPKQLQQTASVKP

[1] = molecular target: T2, MBP (maltose-binding protein) (Escherichia coli, UniProt P0AEX9); test: UV/vis spectral shift; intact protein LC-MS; conditions: covalent; 100 uM protein, 300 uM PQQ, 4 °C overnight
T2 construct: gene malE; recombinant from E. coli BL21, purified without PQQ

Tig (trigger factor) = molecular target: T3, Tig (trigger factor) (Escherichia coli, UniProt P0A850); test: UV/vis spectral shift; intact protein LC-MS; assay type: binding; conditions: covalent; 100 uM protein, 300 uM PQQ, 4 °C overnight
T3 construct: recombinant from E. coli BL21, purified without PQQ
T3 sequence (P0A850 1-432): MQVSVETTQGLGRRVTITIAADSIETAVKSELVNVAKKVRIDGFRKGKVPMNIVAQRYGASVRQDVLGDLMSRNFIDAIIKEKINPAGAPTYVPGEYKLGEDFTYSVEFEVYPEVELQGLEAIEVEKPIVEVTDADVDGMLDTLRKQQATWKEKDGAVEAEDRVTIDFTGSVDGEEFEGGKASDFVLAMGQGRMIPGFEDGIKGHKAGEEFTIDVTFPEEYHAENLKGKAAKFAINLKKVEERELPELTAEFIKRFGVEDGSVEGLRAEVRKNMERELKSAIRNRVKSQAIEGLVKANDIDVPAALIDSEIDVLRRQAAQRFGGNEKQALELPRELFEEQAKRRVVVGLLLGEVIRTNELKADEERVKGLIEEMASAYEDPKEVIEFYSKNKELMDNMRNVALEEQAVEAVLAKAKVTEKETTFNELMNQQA

RuvB = molecular target: T4, RuvB (Escherichia coli, UniProt P0A812); test: UV/vis spectral shift; intact protein MS; MS/MS site mapping; assay type: binding; conditions: covalent; lysine K26 (main) and K46; 100 uM protein, 300 uM PQQ, 4 °C overnight
T4 construct: recombinant from E. coli BL21, purified without PQQ
T4 sequence (P0A812 1-336): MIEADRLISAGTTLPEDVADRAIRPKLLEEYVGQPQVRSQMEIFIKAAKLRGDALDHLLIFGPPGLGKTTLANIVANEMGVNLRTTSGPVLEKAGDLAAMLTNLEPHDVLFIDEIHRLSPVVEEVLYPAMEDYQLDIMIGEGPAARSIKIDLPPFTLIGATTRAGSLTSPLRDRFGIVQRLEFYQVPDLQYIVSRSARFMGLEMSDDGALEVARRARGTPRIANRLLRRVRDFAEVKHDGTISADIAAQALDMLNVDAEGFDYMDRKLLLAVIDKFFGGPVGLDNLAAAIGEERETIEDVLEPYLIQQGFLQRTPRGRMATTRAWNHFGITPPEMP

SurA = molecular target: T5, SurA (Escherichia coli, UniProt P0ABZ6); test: UV/vis spectral shift; intact protein LC-MS; assay type: binding; conditions: covalent; 100 uM protein, 300 uM PQQ, 4 °C overnight
T5 construct: recombinant from E. coli BL21, purified without PQQ
T5 sequence (P0ABZ6 21-428): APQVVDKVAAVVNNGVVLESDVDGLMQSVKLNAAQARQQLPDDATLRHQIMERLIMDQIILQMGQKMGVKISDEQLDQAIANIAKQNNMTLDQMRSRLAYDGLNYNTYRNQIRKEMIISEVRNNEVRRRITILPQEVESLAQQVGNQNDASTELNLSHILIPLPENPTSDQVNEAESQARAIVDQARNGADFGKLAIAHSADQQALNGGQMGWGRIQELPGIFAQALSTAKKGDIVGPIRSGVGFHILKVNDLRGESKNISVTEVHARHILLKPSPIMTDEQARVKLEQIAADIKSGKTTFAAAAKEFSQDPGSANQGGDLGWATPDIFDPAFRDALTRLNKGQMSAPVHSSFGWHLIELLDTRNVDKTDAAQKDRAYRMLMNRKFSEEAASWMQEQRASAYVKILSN

FklB = molecular target: T6, FklB (Escherichia coli, UniProt P0A9L3); test: UV/vis spectral shift; competition of PQQ4 labelling; assay type: binding; conditions: no covalent adduct by intact protein MS
T6 construct: recombinant from E. coli BL21, purified without PQQ
T6 sequence (P0A9L3 2-206): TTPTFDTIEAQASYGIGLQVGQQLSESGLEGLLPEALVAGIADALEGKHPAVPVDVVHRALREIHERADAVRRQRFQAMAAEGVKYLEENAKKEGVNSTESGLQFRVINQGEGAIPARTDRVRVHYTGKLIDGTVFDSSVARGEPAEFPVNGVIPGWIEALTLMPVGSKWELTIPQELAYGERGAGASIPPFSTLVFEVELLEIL

PpiD = molecular target: T7, PpiD (Pseudomonas putida, UniProt Q88KI6); test: UV/vis spectral shift; intact protein LC-MS; assay type: binding; conditions: covalent; 100 uM protein, 300 uM PQQ, 4 °C overnight
T7 construct: gene PP_2304; recombinant from E. coli BL21, purified without PQQ
T7 sequence (Q88KI6 36-623): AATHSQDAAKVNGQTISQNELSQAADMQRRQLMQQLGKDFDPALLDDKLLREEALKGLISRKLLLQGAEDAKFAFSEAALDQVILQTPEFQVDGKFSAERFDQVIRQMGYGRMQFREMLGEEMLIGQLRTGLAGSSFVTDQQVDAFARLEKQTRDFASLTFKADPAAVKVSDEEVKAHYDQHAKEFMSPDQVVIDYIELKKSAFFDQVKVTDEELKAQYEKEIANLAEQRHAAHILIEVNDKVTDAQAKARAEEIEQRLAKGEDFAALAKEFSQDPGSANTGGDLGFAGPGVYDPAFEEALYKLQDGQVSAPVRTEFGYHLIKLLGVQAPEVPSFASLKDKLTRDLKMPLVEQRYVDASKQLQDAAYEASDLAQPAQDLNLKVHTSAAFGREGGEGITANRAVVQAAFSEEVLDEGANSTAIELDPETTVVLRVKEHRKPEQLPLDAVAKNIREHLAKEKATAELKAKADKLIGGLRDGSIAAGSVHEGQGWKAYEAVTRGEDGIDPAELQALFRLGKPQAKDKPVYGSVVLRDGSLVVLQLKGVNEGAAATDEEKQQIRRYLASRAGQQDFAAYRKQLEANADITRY

HtpG = molecular target: T8, HtpG (Escherichia coli, UniProt P0A6Z3); test: UV/vis spectral shift; intact protein LC-MS; assay type: binding; conditions: covalent; 100 uM protein, 300 uM PQQ, 4 °C overnight
T8 construct: recombinant from E. coli BL21, purified without PQQ; 73529 Da peak is a +135 Da adduct
T8 sequence (P0A6Z3 whole entry): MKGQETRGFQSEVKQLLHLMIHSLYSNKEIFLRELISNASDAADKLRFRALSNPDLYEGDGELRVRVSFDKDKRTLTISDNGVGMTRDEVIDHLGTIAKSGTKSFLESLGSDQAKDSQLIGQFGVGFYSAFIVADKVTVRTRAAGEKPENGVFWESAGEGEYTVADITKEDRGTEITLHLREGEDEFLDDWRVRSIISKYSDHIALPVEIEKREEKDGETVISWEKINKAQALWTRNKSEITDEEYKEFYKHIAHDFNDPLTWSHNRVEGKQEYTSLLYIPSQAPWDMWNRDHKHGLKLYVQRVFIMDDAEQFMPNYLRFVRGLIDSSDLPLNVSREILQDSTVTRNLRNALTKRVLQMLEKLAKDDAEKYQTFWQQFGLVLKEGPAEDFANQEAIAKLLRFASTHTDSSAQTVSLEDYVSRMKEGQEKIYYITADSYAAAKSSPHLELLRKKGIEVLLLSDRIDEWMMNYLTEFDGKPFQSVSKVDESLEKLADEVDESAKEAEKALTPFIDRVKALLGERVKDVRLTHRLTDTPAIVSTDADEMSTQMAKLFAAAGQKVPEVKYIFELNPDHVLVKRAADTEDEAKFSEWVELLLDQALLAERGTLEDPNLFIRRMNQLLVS

[2] = molecular target: T9, 6PGD / 6GPD (6-phosphogluconate dehydrogenase, decarboxylating) (Escherichia coli, UniProt P00350); test: MS/MS closed search of +310 Da on lysine; assay type: biochemical; conditions: covalent; E. coli K-12 lysate 3.5 mg/mL, 2000 uM PQQ, 2000 uM CaCl2, 37 °C, 4 h
T9 construct: gene gnd; endogenous protein in E. coli K-12 lysate
T9 sequence (P00350 1-468): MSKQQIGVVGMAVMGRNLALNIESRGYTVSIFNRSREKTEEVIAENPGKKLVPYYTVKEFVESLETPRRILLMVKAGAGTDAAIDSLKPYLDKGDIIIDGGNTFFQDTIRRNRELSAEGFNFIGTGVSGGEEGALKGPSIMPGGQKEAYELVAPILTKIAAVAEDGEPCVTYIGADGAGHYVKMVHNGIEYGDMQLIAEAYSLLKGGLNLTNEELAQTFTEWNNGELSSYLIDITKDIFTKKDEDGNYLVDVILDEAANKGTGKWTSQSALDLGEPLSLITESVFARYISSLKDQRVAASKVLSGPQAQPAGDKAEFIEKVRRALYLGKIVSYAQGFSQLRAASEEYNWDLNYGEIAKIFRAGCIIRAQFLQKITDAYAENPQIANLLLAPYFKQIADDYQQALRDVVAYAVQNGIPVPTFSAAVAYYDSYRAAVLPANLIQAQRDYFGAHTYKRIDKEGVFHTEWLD

YliI = molecular target: T10, YliI (Escherichia coli, UniProt P75804); test: coupled colorimetric assay; assay type: biochemical; conditions: 100 nM enzyme reconstituted with PQQ, 1.25 M glucose
T10 construct: recombinant, purified cofactor-free; details only in supplement
T10 sequence (P75804 21-371): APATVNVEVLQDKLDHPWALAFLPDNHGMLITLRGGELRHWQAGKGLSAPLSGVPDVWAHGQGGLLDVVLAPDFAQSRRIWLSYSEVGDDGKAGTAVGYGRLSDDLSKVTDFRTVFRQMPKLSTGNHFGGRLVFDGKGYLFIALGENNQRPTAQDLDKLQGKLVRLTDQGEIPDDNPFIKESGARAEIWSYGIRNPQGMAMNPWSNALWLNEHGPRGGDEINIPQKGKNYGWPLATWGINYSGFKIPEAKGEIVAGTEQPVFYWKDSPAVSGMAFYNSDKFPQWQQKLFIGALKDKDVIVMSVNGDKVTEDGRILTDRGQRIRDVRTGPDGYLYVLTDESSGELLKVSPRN

CCO [ethanol]
coupled colorimetric assay (PedH): Ethanol dehydrogenase activity of PedH reconstituted with PQQ or PQQ probes was measured

O=C(O)c1cc(C(=O)O)c2c(n1)C(=O)C(=O)c1cc(C(=O)O)[nH]c1-2 [PQQ, Pyrroloquinoline quinone]
+310 Da mass shift [1]: covalent PQQ binding in the case of Tig, HtpG, MBP, RuvB, SurA, and PpiD
+310 Da mass shift (Tig (trigger factor)): covalent PQQ binding in the case of Tig, HtpG, MBP, RuvB, SurA, and PpiD
+310 Da mass shift (RuvB): confirming K26 as the predominant covalent binding site
+310 Da mass shift (SurA): covalent PQQ binding in the case of Tig, HtpG, MBP, RuvB, SurA, and PpiD
UV/vis spectral shift; competition of PQQ4 labelling (FklB): addition of the cofactor revealed characteristic spectroscopic shifts comparable to those of YliI and PedH
+310 Da mass shift (PpiD): covalent PQQ binding in the case of Tig, HtpG, MBP, RuvB, SurA, and PpiD
+310 Da mass shift (HtpG): covalent PQQ binding in the case of Tig, HtpG, MBP, RuvB, SurA, and PpiD
mass shift [2]: confirmed Tig and 6GPD as covalent binding protein hits

OC[C@H]1OC(O)[C@H](O)[C@@H](O)[C@@H]1O (stereo partly shown) [glucose]
coupled colorimetric assay (YliI): Glucose dehydrogenase activity of YliI reconstituted with PQQ or PQQ probes was measured
